Read-outs that look alike come from different tables or passages of the source.
Legend:
Format in all cases: cell-based
breast MDA-MB-435 = assay: COMPARE screening (NCI human cancer cell line screen), cytotoxicity GI50
Protocol: COMPARE screening. The compounds described herein were examined for antiproliferative activity against the human cancer cell lines in the National Cancer Institute screen (COMPARE screening), in which the activity of each compound was evaluated with approximately 55 different cancer cell lines of diverse tumor origins. […] Therefore, the MGM value represents an overall assessment of toxicity of the compound across numerous cell lines.

[1] = system: all human cancer cell lines successfully tested; assay: NCI screen mean graph midpoint (MGM) for growth inhibition
Summary of the method: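 NCI60 panel cells exposed to compound at 100, 10, 1, 0.1 and 0.01 μM for 48 h, then sulforhodamine B staining. Percentage growth versus control plotted against log concentration; MGM is the midpoint across all lines tested.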

CNS SF-539 = assay: COMPARE screening (NCI human cancer cell line screen), cytotoxicity GI50
Summary of the method: (§1)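 Cells of the NCI60 panel were exposed to compound at 100, 10, 1, 0.1 and 0.01 μM for 48 h, then stained with sulforhodamine B. Optical density relative to control was plotted as percentage growth versus log10 concentration.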

melanoma UACC-62 = assay: as above
Summary of the method: as §1

lung HOP-62 = assay: as above
Summary of the method: as §1

prostate DU-145 = assay: as above
Summary of the method: as §1

colon HCT-116 = assay: as above
Summary of the method: as §1

ovarian OVCAR-3 = assay: as above
Summary of the method: as §1

renal SN12C = assay: as above
Summary of the method: as §1

[2] = Table 1, average GI50 of all cell lines tested (approximately 55), test range 10^−8 to 10^−4 molar
[3] = all human cancer cell lines successfully tested
[4] = breast MDA-MB-435, concentration corresponding to 50% growth inhibition, read-out: cytotoxicity (GI50 in μM) breast MDA-MB-435
[5] = CNS SF-539, concentration corresponding to 50% growth inhibition, read-out: cytotoxicity (GI50 in μM) CNS SF-539
[6] = melanoma UACC-62, concentration corresponding to 50% growth inhibition, read-out: cytotoxicity (GI50 in μM) melanoma UACC-62
[7] = lung HOP-62, concentration corresponding to 50% growth inhibition, read-out: cytotoxicity (GI50 in μM) lung HOP-62
[8] = prostate DU-145, concentration corresponding to 50% growth inhibition, read-out: cytotoxicity (GI50 in μM) prostate DU-145
[9] = colon HCT-116, concentration corresponding to 50% growth inhibition, read-out: cytotoxicity (GI50 in μM) colon HCT-116
[10] = ovarian OVCAR-3, concentration corresponding to 50% growth inhibition, read-out: cytotoxicity (GI50 in μM) ovarian OVCAR-3
[11] = renal SN12C, concentration corresponding to 50% growth inhibition, read-out: cytotoxicity (GI50 in μM) renal SN12C

Row | Structure (SMILES) | GI50 (breast MDA-MB-435) [µM] | MGM (mean GI50 across cell lines) [1, 2] [µM] | GI50 (CNS SF-539) [µM] | GI50 (melanoma UACC-62) [µM] | GI50 (lung HOP-62) [µM] | GI50 (prostate DU-145) [µM] | GI50 (colon HCT-116) [µM] | GI50 (ovarian OVCAR-3) [µM] | GI50 (renal SN12C) [µM] | MGM (mean graph midpoint for growth inhibition) [1, 2] [µM] | MGM (mean graph midpoint for growth inhibition) [1, 3] [µM] | GI50 (breast MDA-MB-435; [4]) [µM] | MGM (mean GI50 across cell lines) [1, 3] [µM] | GI50 (CNS SF-539; [5]) [µM] | GI50 (melanoma UACC-62; [6]) [µM] | GI50 (lung HOP-62; [7]) [µM] | GI50 (prostate DU-145; [8]) [µM] | GI50 (colon HCT-116; [9]) [µM] | GI50 (ovarian OVCAR-3; [10]) [µM] | GI50 (renal SN12C; [11]) [µM]
1 | CN(C)CCCn1c2c(c3cc4c(cc3c1=O)OCO4)C(=O)c1ccccc1-2 [Compound 5b] | 3.02 | 0.525 | 2.69 | 0.3 | < 0.01 | 2.04 | < 0.01 | 2.63 | 0.023 |  |  |  |  |  |  |  |  |  |  | 
2 | COc1ccc2c(c1)C(=O)c1c-2n(CCCn2ccnc2)c(=O)c2cc([N+](=O)[O-])ccc12 [Compound 5br] | < 0.01 |  | < 0.01 | < 0.01 | < 0.01 | < 0.01 | < 0.01 | 0.02 | < 0.01 | 0.019 ± 0.004 |  |  |  |  |  |  |  |  |  | 
3 | CC(C)(C)OC(=O)NCCCCCCCCCCCCn1c2c(c3ccccc3c1=O)C(=O)c1ccccc1-2 [Compound 5ak, 6-(12′-tert-BOC-Aminododecyl)-5,6-dihydro-5,1-dioxo-11H-indeno[1,2-c]isoquinoline] | > 100 | 51.3 | 20.4 | 27.5 | 32.4 | 91.2 | > 100 | > 100 | > 100 |  |  |  |  |  |  |  |  |  |  | 
4 | O=C1c2ccccc2-c2c1c1ccccc1c(=O)n2CCCNCCCn1c2c(c3ccccc3c1=O)C(=O)c1ccccc1-2 [Compound 12c, Bis{(5,6-dihydro-5,11-diketo-11H-indeno[1,2-c]isoquinoline)-6-propyl}amine] | 8.91 |  | 3.63 | 6.61 | 0.794 | 1 | 0.55 | 2.95 | 1.55 |  | 4.28 ± 1.89 |  |  |  |  |  |  |  |  | 
5 | COc1cc2c3c(n(CCCN4CCN(C)CC4)c(=O)c2cc1OC)-c1cc2c(cc1C3=O)OCO2 [Compound 5t] | > 100 | 12.0 | 17.8 | 15.1 | 18.2 | 10.7 | 1.48 | 15.1 | 11.5 |  |  |  |  |  |  |  |  |  |  | 
6 | CC(C)(C)OC(=O)N(CCCN(CCn1c2c(c3ccccc3c1=O)C(=O)c1ccccc1-2)C(=O)OC(C)(C)C)CCn1c2c(c3ccccc3c1=O)C(=O)c1ccccc1-2 [Compound 13a, Bis-1,3-{(5,6-dihydro-5,11-diketo-11H-indeno[1,2-c]isoquinoline)-(6-ethyl-tert-BOCamino)}propane] |  |  |  |  |  |  |  |  |  |  |  | > 50.1 | 33.9 | > 50.1 | > 50.1 | 22.4 | > 50.1 | 22.9 | 21.4 | > 50.1
7 | O=C1c2ccccc2-c2c1c1ccccc1c(=O)n2CCN1CCOCC1 [Compound 5j] | > 100 | 67.6 | 85.1 | 29.5 | > 100 | > 100 | 36.3 | 81.3 | 93.3 |  |  |  |  |  |  |  |  |  |  | 
8 | O=C1c2ccccc2-c2c1c1ccc([N+](=O)[O-])cc1c(=O)n2CCCn1ccnc1 [Compound 5f] | 2.17 |  | 0.016 | 0.012 | 0.19 | 0.017 | 0.274 | 0.864 | 0.015 | 0.370 ± 0.28 |  |  |  |  |  |  |  |  |  | 
9 | COc1cc2c3c(n(CCNCCCNCCn4c5c(c6cc(OC)c(OC)cc6c4=O)C(=O)c4ccccc4-5)c(=O)c2cc1OC)-c1ccccc1C3=O.O=C(O)C(F)(F)F.O=C(O)C(F)(F)F [Compound 14k, Bis-1,3-{(5,6-dihydro-5,11-diketo-2,3-dimethoxy-11H-indeno[1,2-c]isoquinoline)-6-ethylamino}propane Bis{trifluoroacetate)] |  |  |  |  |  |  |  |  |  |  |  | 0.813 | 0.562 | 0.17 | 1.23 | 0.068 | 0.209 | 0.045 | 0.269 | 0.028

From patent US9796753B2, “N-substituted indenoisoquinolines and syntheses thereof” (Purdue Research Foundation, priority 2005, dated 2017)
